We go through two molecules from article PMC6747129 (International Journal of Molecular Sciences, 2019).

Structures are written as SMILES.

For series [1], the target named is T1, CYP3A4 (Homo sapiens, UniProt P08684).
In series [2] the test system is microsomal and recombinant CYP3A4. As to conditions: reversible and mechanism-based inhibition of CYP3A4; cited from earlier work.
Series [3] deals with T1, CYP3A4. Description: biochemical.
Series [4] concerns the target T1, CYP3A4. In words: in vitro. Particulars: pH 7.4.

T1 sequence (P08684 whole entry): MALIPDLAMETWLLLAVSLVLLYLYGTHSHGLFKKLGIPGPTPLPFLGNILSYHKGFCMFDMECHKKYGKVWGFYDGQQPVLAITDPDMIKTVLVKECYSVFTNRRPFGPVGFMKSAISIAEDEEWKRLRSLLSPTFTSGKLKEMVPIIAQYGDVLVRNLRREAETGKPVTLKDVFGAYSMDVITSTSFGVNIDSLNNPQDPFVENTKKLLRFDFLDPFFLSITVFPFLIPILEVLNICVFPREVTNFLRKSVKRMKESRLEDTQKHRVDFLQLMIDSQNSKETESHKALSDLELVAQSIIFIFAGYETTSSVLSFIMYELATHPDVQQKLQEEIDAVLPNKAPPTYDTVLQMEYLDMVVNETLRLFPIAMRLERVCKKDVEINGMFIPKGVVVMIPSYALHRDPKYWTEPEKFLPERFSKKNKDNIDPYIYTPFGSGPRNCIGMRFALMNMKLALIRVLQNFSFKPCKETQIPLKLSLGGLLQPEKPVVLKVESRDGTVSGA

Consider `CC(C)=CCC/C(C)=C/COc1c2ccoc2cc2oc(=O)ccc12` [bergamottin], for which, in series [1] (sigmoidal fit of titration curve, ligand-free CYP3A4), the “n, Hill coefficient” value worked out at 1.8. In series [2], the IC50 was 2 to 23 µM. The molecule further came in with a Kd in series [3] of 3 ± 0.3 µM.
Regarding `C/C(=C\COc1c2ccoc2cc2oc(=O)ccc12)CCC(O)C(C)(C)O` (stereo not shown) [DHB, 6′,7′-dihydroxybergamottin], the “share of the total absorbance decrease (Soret band) due to occupation of the high affinity site” value in series [1] (DHB titration, two-site fit) is listed as ~ 17%. Further, the figures for the Kd in series [4] and in series [3] were 10.3 ± 1.4 µM and 0.22 ± 0.03 µM, respectively. For the same molecule, the IC50 in series [2] was 2 to 23 µM.
